Test results published in patent publication US4735949A, “Disubstituted-7-pyrrolidinonaphthyridine antibacterial agents” (Warner-Lambert Company, priority 1987, dated 1988).
Converted amounts (≈) assume the structure as drawn. Where two headings read alike, the source gives them in different places.

Assays:
Experiment in all cases: in vitro antibacterial activity, microtitration dilution method
Type in all cases: cell-based
[1] = tested on: Staphylococcus aureus H 228; conditions: H228; Staphylococcus aureus H 228, in vitro; read-out: Minimal Inhibitory Concentration MIC
Excerpt: (§1) The compounds of the invention display antibacterial activity when tested by the microtitration dilution method as described in Heifetz, et al, Antimicr. Agents & Chemoth., 6, 124 (1974), which is incorporated herein by reference.
(§2) By use of the above referenced method, the following minimum inhibitory concentration values (MICs in μg/ml) were obtained for representative compounds of the invention.

[2] = tested on: Streptococcus faecalis MGH-2; conditions: Enterococcus faecalis, MGH2; Streptococcus faecalis MGH-2, in vitro; read-out: Minimal Inhibitory Concentration MIC
Excerpt: as §1, §2

[3] = tested on: Streptococcus pyogenes C-203; conditions: C203; Streptococcus pyogenes C-203, in vitro; read-out: Minimal Inhibitory Concentration MIC
Excerpt: as §1, §2

[4] = tested on: Staphylococcus aureus UC-76; conditions: UC76; Staphylococcus aureus UC-76, in vitro; read-out: Minimal Inhibitory Concentration MIC
Excerpt: as §1, §2

[5] = tested on: Streptococcus pneumoniae SV-1; conditions: SV1; Streptococcus pneumoniae SV-1, in vitro; read-out: Minimal Inhibitory Concentration MIC
Excerpt: as §1, §2

Proteus rettgeri M 1771 = conditions: Providencia rettgeri
Excerpt: (§3) Agents & Chemoth., 6, 124 (1974), which is incorporated herein by reference.

[6] = tested on: Klebsiella pneumoniae MGH-2
Excerpt: as §3

[7] = tested on: Pseudomonas aeruginosa UI-18; conditions: UI18; Pseudomonas aeruginosa UI-18, in vitro; read-out: Minimal Inhibitory Concentration MIC
Excerpt: as §3

[8] = tested on: Enterobacter cloacae MA 2646
Excerpt: as §3

Escherichia coli Vogel = conditions: read-out: Minimal Inhibitory Concentration MIC
Excerpt: as §3

[9] = M1771, read-out: Minimal Inhibitory Concentration MIC
[10] = Klebsiella pneumoniae, MGH2, read-out: Minimal Inhibitory Concentration MIC
[11] = M1771, Proteus rettgeri M 1771, in vitro, read-out: Minimal Inhibitory Concentration MIC
[12] = MA2646, Enterobacter cloacae MA 2646, in vitro, read-out: Minimal Inhibitory Concentration MIC

SMILES | MIC [1] [mg/L] | MIC [2] [mg/L] | MIC [3] [mg/L] | MIC [4] [mg/L] | MIC [5] [mg/L] | MIC (Proteus rettgeri M 1771; [9]) [mg/L] | MIC [6, 10] [mg/L] | MIC [7] [mg/L] | MIC (Proteus rettgeri M 1771; [11]) [mg/L] | MIC [8, 12] [mg/L] | MIC ([6]; MGH2, Klebsiella pneumoniae MGH-2, in vitro, read-out: Minimal Inhibitory Concentration MIC) [mg/L] | MIC (Escherichia coli Vogel) [mg/L] | MIC ([8]; Enterobacter cloacae, MA2646, read-out: Minimal Inhibitory Concentration MIC) [mg/L]
O=C(O)c1cn(C2CC2)c2c(F)c(N3CCC(O)(c4ccccc4)C3)c(F)cc2c1=O (centres unmarked) [Example 4, 1-Cyclopropyl-6,8-difluoro-1,4-dihydro-7-[(3-hydroxy-3-phenyl)1-pyrrolidinyl]-4-oxo-3-quinolinecarboxylic acid] | 0.003 (≈ 0.00704 µM) | 0.025 (≈ 0.0586 µM) | 0.05 (≈ 0.117 µM) | 0.003 (≈ 0.00704 µM) | 0.013 (≈ 0.0305 µM) | 0.1 (≈ 0.235 µM) | 0.1 (≈ 0.235 µM) |  |  |  |  |  | 
NC1CN(c2c(F)cc3c(=O)c(C(=O)O)cn(C4CC4)c3c2F)CC1c1ccccc1 (centres unmarked) [Example 3, 7-[(3-Amino-4-phenyl)-1-pyrrolidinyl]-1-cyclopropyl-6,8-difluoro-1,4-dihydro-4-oxo-3-quinolinecarboxylic acid] | 0.05 (≈ 0.118 µM) | 0.1 (≈ 0.235 µM) | 0.1 (≈ 0.235 µM) | 0.025 (≈ 0.0588 µM) | 0.1 (≈ 0.235 µM) |  |  | 1.6 (≈ 3.76 µM) | 0.4 (≈ 0.94 µM) | 0.2 (≈ 0.47 µM) | 0.2 (≈ 0.47 µM) | 0.1 (≈ 0.235 µM) | 
NCC1CN(c2c(F)cc3c(=O)c(C(=O)O)cn(C4CC4)c3c2F)CC1c1ccccc1 (centres unmarked) [Example 2] | 0.013 (≈ 0.0296 µM) | 0.013 (≈ 0.0296 µM) | 0.013 (≈ 0.0296 µM) | 0.006 (≈ 0.0137 µM) | 0.006 (≈ 0.0137 µM) |  | 0.1 (≈ 0.228 µM) | 1.6 (≈ 3.64 µM) | 0.4 (≈ 0.91 µM) | 0.2 (≈ 0.455 µM) |  |  | 
NC1(c2ccccc2)CCN(c2c(F)cc3c(=O)c(C(=O)O)cn(C4CC4)c3c2F)C1 (centres unmarked) [Example 1, 7-[(3-Amino-3-phenyl)-1-pyrrolidinyl]-1-cyclopropyl-6,8-difluoro-1,4-dihydro-4-oxo-3-quinolinecarboxylic acid] | 0.006 (≈ 0.0141 µM) | 0.05 (≈ 0.118 µM) | 0.05 (≈ 0.118 µM) | 0.006 (≈ 0.0141 µM) | 0.025 (≈ 0.0588 µM) | 0.1 (≈ 0.235 µM) | 0.1 (≈ 0.235 µM) |  |  |  |  | 0.05 (≈ 0.118 µM) | 0.05 (≈ 0.118 µM)
